# System: Mus musculus
# Experiment: Antimalarial activity against Plasmodium berghei K173 in mice (Mus musculus) by peroral administration using peanut oil
# Assay type: functional
Structure (SMILES),SD50 [mg/kg/day],SD90 [mg/kg/day]
C[C@@H]1CC[C@H]2[C@@H](C)C(Nc3cccc(C(=O)O)c3)O[C@@H]3O[C@@]4(C)CC[C@@H]1[C@]32OO4 (stereo partly specified),2.76,8.23
C[C@@H]1CC[C@H]2[C@@H](C)C(Nc3ccccc3)O[C@@H]3O[C@@]4(C)CC[C@@H]1[C@]32OO4 (stereo partly specified),2.63,7.3
C[C@@H]1CC[C@H]2[C@@H](C)C(Nc3ccc(C(=O)O)cc3)O[C@@H]3O[C@@]4(C)CC[C@@H]1[C@]32OO4 (stereo partly specified),1.36,6.88
Cc1ccc(NC2O[C@@H]3O[C@@]4(C)CC[C@H]5[C@H](C)CC[C@@H]([C@H]2C)[C@@]35OO4)cc1 (stereo partly specified),2.77,6.08
C[C@@H]1CC[C@H]2[C@@H](C)C(Nc3ccc(I)cc3)O[C@@H]3O[C@@]4(C)CC[C@@H]1[C@]32OO4 (stereo partly specified),4.56,11.03
C[C@@H]1CC[C@H]2[C@@H](C)C(Nc3cccc(Br)c3)O[C@@H]3O[C@@]4(C)CC[C@@H]1[C@]32OO4 (stereo partly specified),3.4,5.38
C[C@@H]1CC[C@H]2[C@@H](C)C(Nc3ccc(Cl)cc3)O[C@@H]3O[C@@]4(C)CC[C@@H]1[C@]32OO4 (stereo partly specified),1.77,4.5
C[C@@H]1CC[C@H]2[C@@H](C)C(Nc3ccc(Br)cc3)O[C@@H]3O[C@@]4(C)CC[C@@H]1[C@]32OO4 (stereo partly specified),2.7,9.1
COc1ccc(NC2O[C@@H]3O[C@@]4(C)CC[C@H]5[C@H](C)CC[C@@H]([C@H]2C)[C@@]35OO4)cc1 (stereo partly specified),3.5,11.23
C[C@@H]1CC[C@H]2[C@@H](C)C(=O)O[C@@H]3O[C@@]4(C)CC[C@@H]1[C@]32OO4 [ARTEMISININ],5.13,
C[C@@H]1CC[C@H]2[C@@H](C)C(Nc3cccc(Cl)c3)O[C@@H]3O[C@@]4(C)CC[C@@H]1[C@]32OO4 (stereo partly specified),1.62,4.8

# — ChEMBL document CHEMBL1151548 (1995)
